≈ marks a conversion by molar mass, not a printed value. Like-named read-outs stand apart in the source and are kept apart here. Residues, ends and D or L forms follow the SMILES beside them.
What was measured:
Acinetobacter baumannii = experiment: microbe, parasite or virus in culture; format: cell-based
Description: For the biofilm inhibition assay the antimicrobial activity test was done in 1/10 MHB using A. baumannii treated with the respective dilutions of NCR169C17–38, meropenem or polymixin B for 24 h. After taking the 5 μl samples at the end of the treatment and placed on LB agar to detect bacterial growth, the rest of the grown bacterial suspensions were discarded from the plate and the remaining biofilm on the walls of the plate was then washed three times with sterile water and stained using 1 % Crystal Violet (CV) for 15 min to visualize the produced biofilm. The non-adherent CV dye was then removed by washing with water three times. The plate was left for complete drying, then the biofilm-bound CV dye was dissolved in 200 µl of 30 % acetic-acid with shaking over 15 min. The absorbance was measured at OD550 using a HIDEX Plate Reader (Hidex Sense Microplate Reader with Plate Reader Software version 5064, Hidex, Finland). All measurements were repeated three times.
We examined the capacity of NCR169C17–38 to inhibit biofilm formation by Acinetobacter baumannii, a pathogen well known for its robust biofilm production and high level of antibiotic resistance. […] Additionally, at the end of the experiment we determined the quantity of the biofilm and thereby evaluated their ability to inhibit biofilm formation during culturing the bacteria in the presence of different concentrations of the agents (Fig. 1.A). We tested concentrations of NCR169C17–38 ranging from 25 μM to 0.4 μM, meropenem from 100 μM to 1.6 μM and polymyxin B from 3.1 μM to 0.05 μM.

S. aureus = format: cell-based, Staphylococcus aureus; conditions: 8 h
Description: (§1) For serum stability test human blood was purchased from the Regional Blood Centre in Szeged (the use of human blood has been authorized by the Regional Hungarian Ethics Committee and approved by the Ethics Review Sector of DG RTD (European Commission) in connection with EK’s ERC AdG SymBiotics). The cells from 10 ml of EDTA-blood were centrifuged at 1500 × g for 1 min and washed several times in TBS buffer (10 mM Tris, pH: 7.2, 150 mM NaCl) until the supernatant, representing the serum, became colorless. The NCR169C17–38 peptide was added to the serum at 1:1 ratio and incubated at room temperature for 8 h. Subsequently, serial 2-fold dilutions of the peptide were prepared in PPB, with concentrations ranging from 100 to 0.2 µM and antimicrobial assay was done to determine the MBC values. Experiments were done in three biological replicates.

[1] = tested on: mouse macrophage J774.2 cells; conditions: cited from earlier work
[2] = tested on: Acinetobacter baumannii pre-formed biofilm; experiment: microbe, parasite or virus in culture; format: cell-based; conditions: for MBC: 24 h
Description: For the biofilm eradication assay the difference was at the beginning of the experiments when bacteria were pre-cultured for 24 h or 72 h in MHB with a starting OD600 = 0.01. Then bacterial suspensions were removed from the wells followed by washing three times with 200 µl of 1/2 MHB. Subsequently fresh 1/10 MHB was added to the wells containing the respective dilutions of NCR169C17–38, meropenem or polymixin B and the treatment lasted either 3 h or 24 h. Experiments were done in three biological replicates.
To assess whether the NCR169C17–38 peptide or the tested antibiotics could eradicate pre-formed biofilms, A. baumannii was first cultured in MHB for 24 h, then treated with NCR169C17–38, meropenem or polymyxin B for either 3 h or 24 h, using the same concentration range as in the previous experiment. Both bacterial survival within the pre-formed biofilm and the amount of residual biofilm were assessed. […] In contrast, neither of the two antibiotics completely eliminated the bacteria within the tested concentration range. […] This 24 h of treatment was repeated on mature biofilm (pre-formed for 72 h) and the results were very similar (Supplementary Fig. 1.).

[3] = tested on: HindIII-digested lambda phage DNA; experiment: Real-time DNA binding by SYBR Gold fluorescence; conditions: 100 ng DNA, 10 µM peptide added at 0 or 14 min, room temperature
Description: In addition, DNA-binding kinetics were monitored in real time using a Hidex Sense plate reader at room temperature in three independent experiments. Reaction mixtures contained 100 ng of HindIII-digested lambda phage DNA in 1 × SYBR Gold (Thermo Scientific), either without peptide or with 10 µM of NCR169C17–38 (2.74041 µg), NCR169 (4.56545 µg), NCR169_16–27 (1.56597 µg), or NCR169_17–27 (1.40279 µg). Peptides were added either at the start (0 min) or at 14 min. Fluorescence from DNA-bound SYBR Gold was measured every 3 min (excitation 490 nm, emission 535 nm). At 27 min, proteinase K (1 mg/ml; 100 µg final) was added to peptide-treated samples to assess the effect on peptide–DNA binding. Experiments were done in three biological replicates.
The DNA-binding kinetics were quantified using SYBR Gold fluorescence (Fig. 3.D). […] To test if peptide removal would recover the DNA–SYBR Gold fluorescence to control values, Proteinase K was added at 27 min to all reactions. […] In contrast, fluorescence values in the NCR169 samples remained unchanged, while those of NCR169C17–38 or NCR169_17–27 increased slightly and gradually to the same limited extent.

E. coli = format: cell-based, Escherichia coli; conditions: 8 h
Description: as §1

CC[C@H](C)[C@H](NC(=O)[C@H](CCCCN)NC(=O)[C@H](Cc1ccccc1)NC(=O)[C@H](CC(C)C)NC(=O)[C@@H]1CCCN1C(=O)[C@H](CCCCN)NC(=O)[C@H](CCCCN)NC(=O)[C@H](CO)NC(=O)[C@@H](N)CCCCN)C(=O)N[C@@H](Cc1c[nH]c2ccccc12)C(=O)N[C@@H](CCCCN)C(=O)N[C@@H](CS)C(=O)N[C@H](C(=O)N[C@@H](CCC(=O)O)C(=O)N[C@@H](CC(N)=O)C(=O)N[C@H](C(=O)N[C@@H](CS)C(=O)N[C@H](C(=O)N[C@@H](CC(C)C)C(=O)N[C@@H](Cc1c[nH]c2ccccc12)C(=O)N[C@@H](Cc1ccc(O)cc1)C(=O)N[C@@H](CCCCN)C(N)=O)C(C)C)C(C)C)C(C)C [NCR169C17–38] (H-KSKKPLFKIWKCVENVCVLWYK-NH2; N-terminus assumed)
MBC (Acinetobacter baumannii; 24 h, read-out: MBC, Inhibition test after 24 h): 6.3 µM (≈ 17.3 µg/mL) | inhibition of biofilm formation (Crystal Violet, OD550) (Acinetobacter baumannii; A. baumannii, 24 h treatment, NCR169C17–38 25-0.4 μM, meropenem 100-1.6 μM, polymyxin B 3.1-0.05 μM): remaining effective even at lower doses | MBC after pre-incubation in human serum (S. aureus): 3.1 µM (≈ 8.49 µg/mL) | cytotoxicity [1]: non-cytotoxic | degradation of pre-formed biofilm ([2]; A. baumannii biofilm pre-formed 24 h, 24 h of treatment, Crystal Violet OD550): successful even at sub-MBC level | MBC ([2]; pre-formed biofilm, read-out: MBC, Eradication test after 3 h): 6.3 µM (≈ 17.3 µg/mL) | MBC ([2]; pre-formed biofilm, read-out: MBC, Eradication test after 24 h): 12.5 µM (≈ 34.2 µg/mL) | concentration degrading the mature biofilm (sub-MBC level) ([2]; pre-formed biofilm, 72 h): 3.1 µM | extent of SYBR Gold fluorescence signal reduction (hierarchy) [3]: NCR169C17–38 > NCR169 > NCR169_16–27 > NCR169_17–27 | MBC after pre-incubation in human serum (E. coli): 3.1 µM (≈ 8.49 µg/mL)
